Assay results taken from the CheMixHub viscosity set.
Several values for one entry are separate records, joined by “and”; a condition that tells them apart may be missing. Identical values can stand only once.

Assay: xn = mol fraction of the nth substance listed

C=C(C)C(=O)OCCCCCCC + CCCCCC
viscosity [mPa·s], 101 kPa
Conditions | x1 = 0.002 | x1 = 0.005 | x1 = 0.01 | x1 = 0.02
303 K | 0.2814 | 0.2918 | 0.2946 | 0.3052
313 K | 0.2567 | 0.2692 | 0.2692 | 0.2801
323 K | 0.2346 | 0.2442 | 0.247 | 0.2568

c1ccc(Nc2ccccc2)cc1 + CCCCCC
viscosity
Conditions | 298.15 K | 303.15 K | 308.15 K | 313.15 K | 318.15 K
101 kPa, x1 = 0.0477 | 0.3866 mPa·s | 0.3675 mPa·s | 0.3515 mPa·s | 0.3325 mPa·s | 0.3164 mPa·s
101 kPa, x1 = 0.1451 | – | 0.5085 mPa·s | 0.4768 mPa·s | 0.4472 mPa·s | 0.4182 mPa·s
101.33 kPa, x1 = 0.03537 | – | 0.352 mPa·s | – | – | 0.3079 mPa·s
101.33 kPa, x1 = 0.04767 | – | 0.3675 mPa·s | – | – | 0.3164 mPa·s
101.33 kPa, x1 = 0.0477 | 0.3866 mPa·s | 0.3675 mPa·s | 0.3515 mPa·s | 0.3325 mPa·s | 0.3164 mPa·s
101.33 kPa, x1 = 0.05985 | – | 0.3824 mPa·s | – | – | 0.3288 mPa·s
101.33 kPa, x1 = 0.1451 | – | 0.5085 mPa·s and 0.5085 mPa·s | 0.4768 mPa·s | 0.4472 mPa·s | 0.4182 mPa·s and 0.4182 mPa·s
101.33 kPa, x1 = 0.3067 | – | 1.53 mPa·s | – | – | 0.7796 mPa·s

c1ccc(Nc2ccccc2)cc1 + CCCCCC(=O)O
323.15 K, 101.33 kPa
Conditions | viscosity [mPa·s]
x1 = 0.2111 | 2.271
x1 = 0.3983 | 2.789
x1 = 0.5972 | 3.497
x1 = 0.7957 | 4.496

CCCCCCCCCCCCO + CCCCCCC
viscosity [mPa·s], 101.33 kPa
Conditions | 298.15 K | 308.15 K
x1 = 0.0343 | 0.4411 | 0.3932
x1 = 0.0687 | 0.514 | 0.4523
x1 = 0.1389 | 0.7038 | 0.6054
x1 = 0.2173 | 0.9825 | 0.8279
x1 = 0.2965 | 1.372 | 1.126
x1 = 0.392 | 2.04 | 1.632
x1 = 0.4898 | 2.746 | 2.224
x1 = 0.5941 | 4.056 | 3.199
x1 = 0.7213 | 5.958 | 4.858
x1 = 0.7853 | 7.414 | 5.854
x1 = 0.8475 | 9.506 | 7.073
x1 = 0.9227 | 11.73 | 8.856

CC(C)CCCC(C)CCCC(C)CCCCC(C)CCCC(C)CCCC(C)C (stereo not given) + CCCCCCCC
viscosity [mPa·s], 100 kPa
Conditions | x1 = 0.238 | x1 = 0.492 | x1 = 0.709
293.15 K | 2.43 | 7.43 | 15.6
313.15 K | 1.6 | 4.27 | 7.68

CCCOC(=O)CCC + CCCCCCCCCC
298.15 K, 101.33 kPa
Conditions | viscosity [mPa·s]
x2 = 0.107 | 0.775
x2 = 0.1388 | 0.773
x2 = 0.1735 | 0.771
x2 = 0.2644 | 0.768
x2 = 0.3659 | 0.768
x2 = 0.4232 | 0.769
x2 = 0.5092 | 0.773
x2 = 0.6715 | 0.79
x2 = 0.7654 | 0.804
x2 = 0.8807 | 0.828
x2 = 0.9329 | 0.841

CCc1cccc(CC)c1 + CCCCCCCCCCCC
viscosity [mPa·s], 102 kPa
Conditions | x1 = 0.0991 | x1 = 0.2011 | x1 = 0.2996 | x1 = 0.4004 | x1 = 0.5006 | x1 = 0.5983 | x1 = 0.6998 | x1 = 0.7998 | x1 = 0.9001
293.15 K | 1.4 | 1.31 | 1.23 | 1.16 | 1.09 | 1.03 | 0.971 | 0.927 | 0.885
303.15 K | 1.18 | 1.11 | 1.05 | 1 | 0.94 | 0.9 | 0.852 | 0.811 | 0.778
313.15 K | 1.01 | 0.962 | 0.916 | 0.871 | 0.831 | 0.792 | 0.751 | 0.717 | 0.69
323.15 K | 0.886 | 0.843 | 0.806 | 0.768 | 0.735 | 0.703 | 0.67 | 0.642 | 0.618

CCCOC(=O)CCC + CCCCCCCCCCCCCC
298.15 K, 101.33 kPa
Conditions | viscosity [mPa·s]
x2 = 0.0852 | 0.852
x2 = 0.1135 | 0.877
x2 = 0.154 | 0.911
x2 = 0.2133 | 0.967
x2 = 0.2994 | 1.054
x2 = 0.3667 | 1.127
x2 = 0.4774 | 1.25
x2 = 0.6061 | 1.413
x2 = 0.7085 | 1.558
x2 = 0.8446 | 1.786
x2 = 0.9178 | 1.909

CC(C)CCCC(C)CCCC(C)CCCC(C)C (stereo not given) + CCCCCCCCCCCCCCCC
298.15 K, 101.33 kPa
Conditions | viscosity [mPa·s]
x2 = 0.0966 | 5.129
x2 = 0.1996 | 4.843
x2 = 0.2995 | 4.565
x2 = 0.3995 | 4.303
x2 = 0.4994 | 4.063
x2 = 0.5995 | 3.839
x2 = 0.6995 | 3.631
x2 = 0.8001 | 3.438
x2 = 0.85 | 3.332

CC(C)CCCC(C)CCCC(C)CCCCC(C)CCCC(C)CCCC(C)C (stereo not given) + CCCCCCCCCCCCCCCC
298.15 K, 101.33 kPa
Conditions | viscosity [mPa·s]
x2 = 0.045 | 26.05
x2 = 0.099 | 23.59
x2 = 0.1473 | 21.54
x2 = 0.2008 | 19.45
x2 = 0.2977 | 16.16
x2 = 0.4495 | 11.84
x2 = 0.6011 | 8.569
x2 = 0.8001 | 5.307

CCCCCCCCCCCCO + CCCCCCCCCCCO
viscosity [mPa·s], 101.8 kPa
Conditions | x2 = 0.105 | x2 = 0.3165 | x2 = 0.5196 | x2 = 0.7165 | x2 = 0.9076
298.15 K | 16.69 | 16.05 | 15.53 | 15 | 14.51
308.15 K | 11.29 | 10.91 | 10.58 | 10.23 | 9.905
318.15 K | 7.895 | 7.633 | 7.418 | 7.19 | 6.977

CCCCCCCCCCCCO + CCCCCCCCCCO
viscosity [mPa·s], 101.8 kPa
Conditions | x2 = 0.1151 | x2 = 0.3347 | x2 = 0.5407 | x2 = 0.7346 | x2 = 0.9162
298.15 K | 16.35 | 15.13 | 14.02 | 13.03 | 12.15
308.15 K | 11.08 | 10.31 | 9.627 | 8.957 | 8.384
318.15 K | 7.752 | 7.245 | 6.775 | 6.357 | 5.973

CCCCCCCCCCCCO + CCCCCCCCCO
viscosity [mPa·s], 101.8 kPa
Conditions | x2 = 0.1246 | x2 = 0.3557 | x2 = 0.5641 | x2 = 0.7516 | x2 = 0.9218
298.15 K | 15.91 | 14.07 | 12.49 | 11.2 | 10.02
308.15 K | 10.86 | 9.686 | 8.677 | 7.814 | 7.056
318.15 K | 7.599 | 6.831 | 6.182 | 5.591 | 5.091

CC(C)CCCC(C)CCCC(C)CCCCC(C)CCCC(C)CCCC(C)C (stereo not given) + CCCCCCCCO
Conditions | viscosity [mPa·s]
298.15 K, 101 kPa, x2 = 0.5974 | 13.55

CCCCCCCCCCCCO + CCCCCCCCO
viscosity [mPa·s], 101.8 kPa
Conditions | x2 = 0.1377 | x2 = 0.3798 | x2 = 0.589 | x2 = 0.7701 | x2 = 0.9281
298.15 K | 15.08 | 12.91 | 11.11 | 9.509 | 8.204
308.15 K | 10.21 | 8.958 | 7.745 | 6.704 | 5.873
318.15 K | 7.201 | 6.357 | 5.553 | 4.856 | 4.284

CCCCCCCCCCCCO + CCCCCCCO
viscosity [mPa·s], 101.8 kPa
Conditions | x2 = 0.1535 | x2 = 0.4063 | x2 = 0.6158 | x2 = 0.7897 | x2 = 0.937
298.15 K | 14.93 | 11.89 | 9.619 | 7.876 | 6.209
308.15 K | 10.25 | 8.286 | 6.789 | 5.642 | 4.516
318.15 K | 7.217 | 5.917 | 4.913 | 4.132 | 3.362

CCCCCCCCCCCCO + CCCCCCO
viscosity [mPa·s], 101.8 kPa
Conditions | x2 = 0.1701 | x2 = 0.4377 | x2 = 0.6449 | x2 = 0.8097 | x2 = 0.9429
298.15 K | 14.45 | 10.7 | 8.172 | 6.334 | 5.053
308.15 K | 9.897 | 7.517 | 5.841 | 4.64 | 3.754
318.15 K | 6.978 | 5.411 | 4.279 | 3.455 | 2.829

Cc1ccc(C)cc1 + CCCCCCO
viscosity, 101 kPa
Conditions | x2 = 0.0999 | x2 = 0.1999 | x2 = 0.2999 | x2 = 0.4001 | x2 = 0.4997 | x2 = 0.6 | x2 = 0.7 | x2 = 0.8 | x2 = 0.8999
303.15 K | 0.616 mPa·s and 0.616 mPa·s | 0.693 mPa·s and 0.693 mPa·s | 0.799 mPa·s and 0.799 mPa·s | 0.946 mPa·s and 0.946 mPa·s | 1.148 mPa·s and 1.148 mPa·s | 1.42 mPa·s and 1.42 mPa·s | 1.801 mPa·s and 1.801 mPa·s | 2.323 mPa·s and 2.323 mPa·s | 3.004 mPa·s and 3.004 mPa·s
313.15 K | 0.544 mPa·s and 0.544 mPa·s | 0.605 mPa·s and 0.605 mPa·s | 0.689 mPa·s and 0.689 mPa·s | 0.802 mPa·s and 0.802 mPa·s | 0.956 mPa·s and 0.956 mPa·s | 1.156 mPa·s and 1.156 mPa·s | 1.433 mPa·s and 1.433 mPa·s | 1.806 mPa·s and 1.806 mPa·s | 2.295 mPa·s and 2.295 mPa·s
323.15 K | 0.485 mPa·s and 0.485 mPa·s | 0.533 mPa·s and 0.533 mPa·s | 0.6 mPa·s and 0.6 mPa·s | 0.689 mPa·s and 0.689 mPa·s | 0.807 mPa·s and 0.807 mPa·s | 0.958 mPa·s and 0.958 mPa·s | 1.161 mPa·s and 1.161 mPa·s | 1.433 mPa·s and 1.433 mPa·s | 1.788 mPa·s and 1.788 mPa·s
